# Results from article PMC9495676, “Evaluation of the Antimicrobial Properties of a Natural Peptide from Vespa mandarinia Venom and Its Synthetic Analogues as a Possible Route to Defeat Drug-Resistant Microbes” (Biology, 2022).
# No end group written: not given here.
# Tests used:
# S. aureus biofilm = experiment: Antibiofilm assay (MBIC/MBEC), crystal violet; format: cell-based, Staphylococcus aureus; details: TSB, 595 nm, nine replicates from three independent experiments; for MBIC: S. aureus biofilm inhibition; for MBEC: S. aureus preformed 24 h biofilm, peptide 24 h at 37 °C
# Method: (§1) The minimal biofilm inhibitory concentration assay (MBIC) and minimal biofilm eradication concentration assay (MBEC) were performed on each of the peptides using Gram-positive bacteria cultured in Tryptic Soy Broth (TSB, Sigma-Aldrich, St. Louis, MO, USA) and Gram-negative bacteria cultured in Luria-Bertani broth (LB, Thermo Fisher Scientific, Carlsbad, CA, USA). The seeding concentration in 96-well plates of bacterial suspension was the same as for the anti-bacterial assay, and a UV spectrophotometer set to 550 nm was used to detect OD values. Melittin was used as a positive control. For MBIC, peptide solution was mixed with bacterial suspension at first to test if it could inhibit the growth of biofilm. However, for minimal biofilm eradication (MBEC) assays, biofilm was formed in 96-well plates at 37 °C for 24 h after seeding bacteria; afterwards, it was washed by sterile PBS twice. Peptide solutions, prepared with culture broth, were added to […] the biofilms by incubating at 37 °C for 24 h. Both plates were washed by PBS twice and stained by 125 µL 0.1% crystal violet solution (Sigma-Aldrich, Gillingham, UK). The stain was dissolved in 150 µL 30% acetic acid (Sigma-Aldrich, Gillingham, UK). The absorbance values of 100 µL solution from each well, were analysed by using a Synergy HT plate reader (Biotech, Minneapolis, MN, USA) set at 595 nm.
# E. coli biofilm = experiment: Antibiofilm assay (MBIC/MBEC), crystal violet; format: cell-based, Escherichia coli; details: LB, 595 nm, nine replicates from three independent experiments; for MBIC: E. coli biofilm inhibition; for MBEC: E. coli preformed 24 h biofilm, peptide 24 h at 37 °C
# Method: as §1
# K. pneumoniae biofilm = experiment: Antibiofilm assay (MBIC/MBEC), crystal violet; format: cell-based, Klebsiella pneumoniae; details: LB, 595 nm, nine replicates from three independent experiments; for MBIC: K. pneumoniae biofilm inhibition; for MBEC: K. pneumoniae preformed 24 h biofilm, peptide 24 h at 37 °C
# Method: as §1
# E. faecalis biofilm = experiment: Antibiofilm assay (MBIC/MBEC), crystal violet; format: cell-based, Enterococcus faecalis; details: TSB, 595 nm, nine replicates from three independent experiments; for MBIC: E. faecalis biofilm inhibition; for MBEC: E. faecalis preformed 24 h biofilm, peptide 24 h at 37 °C
# Method: as §1
# P. aeruginosa biofilm = experiment: Antibiofilm assay (MBIC/MBEC), crystal violet; format: cell-based, Pseudomonas aeruginosa; details: LB, 595 nm, nine replicates from three independent experiments; for MBIC: P. aeruginosa biofilm inhibition; for MBEC: P. aeruginosa preformed 24 h biofilm, peptide 24 h at 37 °C
# Method: as §1
# MRSA biofilm = experiment: Antibiofilm assay (MBIC/MBEC), crystal violet; format: cell-based, methicillin-resistant Staphylococcus aureus; details: TSB, 595 nm, nine replicates from three independent experiments; for MBIC: MRSA biofilm inhibition; for MBEC: MRSA preformed 24 h biofilm, peptide 24 h at 37 °C
# Method: as §1
# E. coli (ATCC 8739) = experiment: MIC/MBC broth dilution assay; format: cell-based, Escherichia coli; details: 37 °C overnight, nine replicates from three independent experiments; for MIC: broth dilution, Mueller–Hinton broth, 5 × 10^5 CFU/mL, OD 550 nm; for MBC: sub-culture on MHA
# Method: (§2) The minimal inhibitory concentration assay (MIC) and minimum bactericidal concentration assay (MBC) of the peptide were carried out using the broth dilution method. Seven microbes, including the Gram-positive bacteria, S. aureus (NCTC 6538), MRSA, (ATCC 12493) and Enterococcus faecalis (E. faecalis) (NCTC 12697); Gram-negative bacteria, E. coli (ATCC 8739), Klebsiella pneumoniae (K. pneumoniae) (ATCC 43816) and Pseudomonas aeruginosa (P. aeruginosa) (ATCC 9027); and a yeast, C. albicans (ATCC 10231), were used in these assays and incubated with peptide at 37 °C overnight. The growth culture media were Yeast Extract Peptone Dextrose for C. albicans and Mueller–Hinton broth for others. The concentration of microbes was detected by measuring OD values through the use of a UV spectrophotometer set to 550 nm. C. albicans assays required 10^6 colony forming units (CFU)/mL, while others were incubated with 10^8 CFU/mL and verified by viable cell counts. All of the inocula were diluted to final concentrations of 5 × 10^5 CFU/mL. The concentration of peptides ranged from 1 µM to 512 µM (C = 1, 2, 4, 8, 16, 32, 64, 128, 256, 512 µM). Two mg/mL of amphotericin B for C. albicans and 2 mg/mL norfloxacin for others were applied as positive controls, and 1% of dimethyl sulphoxide (DMSO) was applied as a vehicle control. The 96-well plates were analysed at 550 nm using an ELISA plate reader (Biolise BioTek EL808, Winooski, VT, USA).
# (§3) After analysing the growth situation of microbial cultures from each concentration, 10 µL of the inhibited cultures (the peptide concentration ranges from MIC to maximum concentration) were selected to sub-culture onto the Mueller–Hinton agar (MHA) plates. The plates were incubated overnight at 37 °C. After incubation, the lowest concentration on the MHA plates with no bacterial growth was regarded as the MBC value.
# [1] = tested on: P. aeruginosa (ATCC 9027); experiment: MIC/MBC broth dilution assay; format: cell-based, Pseudomonas aeruginosa; details: 37 °C overnight, nine replicates from three independent experiments; for MIC: broth dilution, Mueller–Hinton broth, 5 × 10^5 CFU/mL, OD 550 nm; for MBC: sub-culture on MHA
# Method: as §2, §3
# horse erythrocytes = experiment: Haemolysis assay; format: cell-based; details: 37 °C, 2 h; for HC50 (peptide concentration that caused 50% lysis of horse red blood cells): 4% (v/v) defibrinated horse erythrocytes, 550 nm, normalised to 1% Triton X-100, calculated from the haemolysis curve
# Method: Defibrinated horse erythrocytes (TCS Biosciences Ltd., Buckingham, UK) were used in the haemolysis assay. Peptides, from 1 μM to 512 μM, were tested with a 4% (v/v) erythrocyte suspension and were incubated at 37 °C for 2 h, while 1% Triton X-100 (Sigma-Aldrich, St. Louis, MO, USA) was acted as a positive control and phosphate-buffered saline (PBS) was used as a negative control. The sample supernatants were analysed at 550 nm on an ELISA plate reader (Biolise BioTek EL808, Winooski, VT, USA).
# E. faecalis (NCTC 12697) = experiment: MIC/MBC broth dilution assay; format: cell-based, Enterococcus faecalis; details: 37 °C overnight, nine replicates from three independent experiments; for MIC: broth dilution, Mueller–Hinton broth, 5 × 10^5 CFU/mL, OD 550 nm; for MBC: sub-culture on MHA
# Method: as §2, §3
# MRSA (ATCC 12493) = experiment: MIC/MBC broth dilution assay; format: cell-based, methicillin-resistant Staphylococcus aureus; details: 37 °C overnight, nine replicates from three independent experiments; for MIC: broth dilution, Mueller–Hinton broth, 5 × 10^5 CFU/mL, OD 550 nm; for MBC: sub-culture on MHA
# Method: as §2, §3
# S. aureus (NCTC 6538) = experiment: MIC/MBC broth dilution assay; format: cell-based, Staphylococcus aureus; details: 37 °C overnight, nine replicates from three independent experiments; for MIC: broth dilution, Mueller–Hinton broth, 5 × 10^5 CFU/mL, OD 550 nm; for MBC: sub-culture of inhibited cultures on MHA
# Method: as §2, §3
# C. albicans (ATCC 10231) = experiment: MIC/MBC broth dilution assay; format: cell-based, Candida albicans; details: 37 °C overnight, nine replicates from three independent experiments; for MIC: broth dilution, Yeast Extract Peptone Dextrose, 5 × 10^5 CFU/mL, OD 550 nm; for MBC: sub-culture on agar plates
# Method: as §2, §3
# [2] = tested on: K. pneumoniae (ATCC 43816); experiment: MIC/MBC broth dilution assay; format: cell-based, Klebsiella pneumoniae; details: 37 °C overnight, nine replicates from three independent experiments; for MIC: broth dilution, Mueller–Hinton broth, 5 × 10^5 CFU/mL, OD 550 nm
# Method: as §2, §3
# Gram-positive bacteria = experiment: MIC broth dilution assay, summary over Gram-positive bacteria; format: cell-based; details: range over S. aureus, MRSA, E. faecalis
# Method: as §2, with “Two mg/mL of amphotericin B for C. albicans and 2 mg/mL norfloxacin for others were applied as positive controls, and 1% of dimethyl sulphoxide (DMSO) was applied as a vehicle control.” left out, “USA). […]” for “USA).”
Compound,MBIC (S. aureus biofilm) [µM],MBIC (E. coli biofilm),MBIC (K. pneumoniae biofilm),MBIC (E. faecalis biofilm) [µM],MBIC (P. aeruginosa biofilm),MBIC (MRSA biofilm) [µM],MIC (E. coli (ATCC 8739)) [µM],MBEC (S. aureus biofilm) [µM],MIC [1] [µM],MBEC (E. coli biofilm),MBEC (K. pneumoniae biofilm),MBEC (E. faecalis biofilm) [µM],MBEC (P. aeruginosa biofilm),HC50 (peptide concentration that caused 50% lysis of horse red blood cells) (horse erythrocytes) [µM],MIC (E. faecalis (NCTC 12697)),MBC (E. faecalis (NCTC 12697)) [µM],MBC (MRSA (ATCC 12493)),MBC (S. aureus (NCTC 6538)),MBEC (MRSA biofilm) [µM],MIC [2] [µM],also measured
"CC[C@H](C)[C@H](NC(=O)CN)C(=O)NCC(=O)N[C@@H](C)C(=O)N[C@H](C(=O)N[C@@H](CC(C)C)C(=O)N[C@@H](CCCCN)C(=O)N[C@H](C(=O)N[C@@H](CC(C)C)C(=O)N[C@H](C(=O)N[C@H](C(=O)NCC(=O)N[C@@H](CC(C)C)C(=O)N1CCC[C@H]1C(=O)N[C@@H](C)C(=O)N[C@@H](CC(C)C)C(=O)N[C@H](C(=O)N[C@@H](CO)C(=O)N[C@@H](Cc1c[nH]c2ccccc12)C(=O)N[C@H](C(=O)N[C@@H](CCCCN)C(=O)N[C@@H](CCCNC(=N)N)C(=O)N[C@@H](CCCCN)C(=O)N[C@@H](CCCNC(=N)N)C(=O)N[C@@H](CCC(N)=O)C(=O)N[C@@H](CCC(N)=O)C(N)=O)[C@@H](C)CC)[C@@H](C)CC)[C@@H](C)O)[C@@H](C)O)C(C)C)C(C)C [Melittin, reference compound]",4,32 µM,128 µM,8,64 µM,8,,,,,,,,,,,,,,,
FLGIIGKLLSGLL-NH2 [VM-3G],2,256 µM,>512/>512 µM,8,>512/>512 µM,2,64,32,128,> 512 µM,>512/>512 µM,> 512,>512/>512 µM,9.686,4 µM,4,2 µM,1 µM,32,>512,MBC (E. coli (ATCC 8739)): 128 µM; MBC [1]: 128 µM; MIC (MRSA (ATCC 12493)): 2 µM; MIC (S. aureus (NCTC 6538)): 1 µM; MIC (C. albicans (ATCC 10231)): >512 µM
FLKIIGKLLSGLL-NH2 [VM-3K],2,16 µM,64 µM,4,32 µM,2,8,32,16,> 512 µM,> 512 µM,> 512,> 512 µM,11.2,2/2 µM,,2 µM,1 µM,64,32,MBC (E. coli (ATCC 8739)): 8 µM; MBC [1]: 16 µM; MIC (MRSA (ATCC 12493)): 1 µM; MIC (S. aureus (NCTC 6538)): 1 µM; MIC (C. albicans (ATCC 10231)): 32 µM; MBC (C. albicans (ATCC 10231)): 32 µM; MBC ([2]; sub-culture on MHA): 32 µM
FLPIIGKLLSGLL-NH2 [VM],8,>512/>512 µM,>512/>512 µM,,>512/>512 µM,8,256,64,>512,>512/>512 µM,>512/>512 µM,,>512/>512 µM,44.43,16 µM,16,4 µM,4 µM,64,>512,MBC (E. coli (ATCC 8739)): 256 µM; maximum concentration that caused less than 10% haemolysis (horse erythrocytes; 4% horse erythrocytes): 16 µM; MIC (MRSA (ATCC 12493)): 4 µM; MIC (S. aureus (NCTC 6538)): 4 µM; MBC (C. albicans (ATCC 10231)): 32/32 µM; MICs against Gram-positive bacteria (Gram-positive bacteria): 4 to 16 µM
FLWIIGKLLSGLL-NH2 [VM-3W],4,>512/>512 µM,>512/>512 µM,16,>512/>512 µM,4,>512,128,>512,>512/>512 µM,>512/>512 µM,> 512,>512/>512 µM,9.682,4 µM,4,2 µM,1 µM,128,>512,MIC (MRSA (ATCC 12493)): 2 µM; MIC (S. aureus (NCTC 6538)): 1 µM; MIC (C. albicans (ATCC 10231)): >512 µM
FLYIIGKLLSGLL-NH2 [VM-3Y],2,>512/>512 µM,>512/>512 µM,64,>512/>512 µM,2,>512,128,>512,>512/>512 µM,>512/>512 µM,> 512,>512/>512 µM,211.2,4 µM,4,2/2 µM,2/2 µM,64,>512,MIC (C. albicans (ATCC 10231)): >512 µM
